Patent publication US8178538B2, “Pyridazinones” (Hoffmann-La Roche Inc., priority 2008, dated 2012)

Molecular target: T1, PDE10A2 (Homo sapiens, UniProt Q9Y233)
T1 construct: residues serine 449 to aspartate 789; His6 (H6) with thrombin cleavage site (N, cleaved yes); made in house; host or cells: E. coli BL21(DE3) pLysS
Experiment: PDE10A2 inhibition, Scintillation Proximity Assay (SPA)
Assay type: biochemical
Settings: catalytic domain of human PDE10A2 (S449-D789), 0.25 nM enzyme, 50 nM cGMP + 50 nM [3H]-cGMP, 30 minutes at room temperature
How it was run: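 Human PDE10A2 catalytic domain (S449-D789, E. coli-expressed) at 0.25 nM hydrolysed 50 nM cGMP plus 50 nM [3H]-cGMP in 20 mM HEPES/10 mM MgCl2, pH 7.5, for 30 min at room temperature. Stopped with YSi-SPA beads in zinc sulphate; scintillation counts over a concentration range gave IC50.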

T1 sequence (Q9Y233 715-1055): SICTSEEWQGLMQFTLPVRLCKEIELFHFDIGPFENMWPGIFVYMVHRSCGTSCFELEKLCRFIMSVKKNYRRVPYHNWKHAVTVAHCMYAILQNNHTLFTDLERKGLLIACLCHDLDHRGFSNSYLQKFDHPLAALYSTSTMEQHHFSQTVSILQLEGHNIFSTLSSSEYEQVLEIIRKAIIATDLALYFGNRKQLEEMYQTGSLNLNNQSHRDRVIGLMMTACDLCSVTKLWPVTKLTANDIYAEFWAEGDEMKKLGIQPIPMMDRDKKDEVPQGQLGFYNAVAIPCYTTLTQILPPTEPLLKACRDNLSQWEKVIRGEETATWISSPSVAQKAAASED

Structure (SMILES)	IC50 [nM]
O=c1ccn(-c2cccc(OC(F)(F)F)c2)nc1-c1ccnn1-c1ccc2c(c1)OCCO2 [Example 79, 3-[2-(2,3-Dihydro-benzo[1,4]dioxin-6-yl)-2H-pyrazol-3-yl]-1-(3-trifluoromethoxy-phenyl)-1H-pyridazin-4-one]	7
O=c1ccn(-c2cccc(OC(F)(F)F)c2)nc1-c1ccnn1-c1ccccc1F [Example 28, 3-[2-(2-Fluoro-phenyl)-2H-pyrazol-3-yl]-1-(3-trifluoromethoxy-phenyl)-1H-pyridazin-4-one]	17
O=c1ccn(-c2ccc(OC(F)(F)F)cc2)nc1-c1ccnn1-c1ccc(F)cc1 [Example 138, 3-[2-(4-Fluoro-phenyl)-2H-pyrazol-3-yl]-1-(4-trifluoromethoxy-phenyl)-1H-pyridazin-4-one]	37

The next lines start with the values.

IC50 [nM]	Structure (SMILES)
20	Cc1ccccc1-n1nccc1-c1nn(-c2ccc(C(F)(F)F)cc2)ccc1=O [Example 216, 3-(2-o-Tolyl-2H-pyrazol-3-yl)-1-(4-trifluoromethyl-phenyl)-1H-pyridazin-4-one]
2	O=C(OCCF)c1cccc(-n2ccc(=O)c(-c3ccnn3-c3cccc4ccccc34)n2)c1 [Example 295, 3-[3-(2-Naphthalen-1-yl-2H-pyrazol-3-yl)-4-oxo-4H-pyridazin-1-yl]-benzoic acid 2-fluoro-ethyl ester]
155	O=c1ccn(-c2cccc(OC(F)(F)F)c2)nc1-c1ccnn1-c1ccc2c(c1)OC(F)(F)O2 [Example 162, 3-[2-(2,2-Difluoro-benzo[1,3]dioxol-5-yl)-2H-pyrazol-3-yl]-1-(3-trifluoromethoxy-phenyl)-1H-pyridazin-4-one]
92	CS(=O)(=O)c1ccc(-n2ccc(=O)c(-c3ccnn3-c3cccc(Cl)c3)n2)cc1 [Example 157, 3-[2-(3-Chloro-phenyl)-2H-pyrazol-3-yl]-1-(4-methanesulfonyl-phenyl)-1H-pyridazin-4-one]
